Test results published in ChEMBL document CHEMBL5724914, “Linking interpersonal differences in gut microbiota composition and drug biotransformation activity” (2024).

How the values were obtained:
[1] = (§1) The drug is tested on Z-019 corresponding to rat gut metagenome with ENA study accession number: PRJEB37062 and ENA sample accession number: ERS12561818 for biotransformation under anaerobic condition. The drug concentrations were measured over 9 timepoints collected between 0 and 24 hours of incubation by liquid-chromatography-coupled mass spectrometry (LC–MS); conditions: 2 µM
[2] = as §1, with “on Z-018” for “on Z-019”, “to pig” for “to rat”, “number: ERS12561817” for “number: ERS12561818”; conditions: 2 µM
[3] = as §1, with “on Z-016” for “on Z-019”, “to mouse” for “to rat”, “number: ERS12561815” for “number: ERS12561818”; conditions: 2 µM
[4] = as §1, with “Z-004” for “Z-019”, “to” for “to rat gut”, “ERS12561804” for “ERS12561818”; conditions: 2 µM
[5] = as §1, with “on WLS-310” for “on Z-019”, “to human” for “to rat”, “number: ERS12561785” for “number: ERS12561818”; conditions: 2 µM
[6] = as §1, with “on WLS-220” for “on Z-019”, “to human” for “to rat”, “number: ERS12561769” for “number: ERS12561818”; conditions: 2 µM
[7] = as §1, with “on WLS-082” for “on Z-019”, “to human” for “to rat”, “number: ERS12561751” for “number: ERS12561818”; conditions: 2 µM
[8] = as §1, with “on WLS-077” for “on Z-019”, “to human” for “to rat”, “number: ERS12561750” for “number: ERS12561818”; conditions: 2 µM
[9] = as §1, with “on WLS-052” for “on Z-019”, “to human” for “to rat”, “number: ERS12561747” for “number: ERS12561818”; conditions: 2 µM
[10] = as §1, with “on WLS-039” for “on Z-019”, “to human” for “to rat”, “number: ERS12561746” for “number: ERS12561818”; conditions: 2 µM
[11] = as §1, with “on WLS-007” for “on Z-019”, “to human” for “to rat”, “number: ERS12561742” for “number: ERS12561818”; conditions: 2 µM
[12] = human gut metagenome, 24 h, 2 µM
[13] = human gut metagenome, 24 h, 2 µM; remark: listed apart in the source
[14] = human gut metagenome, 24 h, 2 µM; remark: listed apart in the source
[15] = human gut metagenome, 24 h, 2 µM; remark: listed apart in the source
[16] = human gut metagenome, 24 h, 2 µM; remark: listed apart in the source
[17] = human gut metagenome, 24 h, 2 µM; remark: listed apart in the source
[18] = human gut metagenome, 24 h, 2 µM; remark: listed apart in the source
[19] = human gut metagenome, 24 h, 2 µM; remark: listed apart in the source
[20] = as §1, with “Z-027” for “Z-019”, “to” for “to rat gut”, “ERS12561826” for “ERS12561818”; conditions: 2 µM
Further: call rule not given here.

## CCC1(c2ccc(N)cc2)CCC(=O)NC1=O (stereo not given) [AMINOGLUTETHIMIDE]
[1]
  Bacterial Biotransformation: Compound NOT metabolized
[2]
  Bacterial Biotransformation: Compound metabolized
[3]
  Bacterial Biotransformation: Compound NOT metabolized
[4]
  Bacterial Biotransformation: Compound NOT metabolized
[5]
  Bacterial Biotransformation: Compound NOT metabolized
[6]
  Bacterial Biotransformation: Compound NOT metabolized
[7]
  Bacterial Biotransformation: Compound NOT metabolized
[8]
  Bacterial Biotransformation: Compound NOT metabolized
[9]
  Bacterial Biotransformation: Compound NOT metabolized
[10]
  Bacterial Biotransformation: Compound NOT metabolized
[11]
  Bacterial Biotransformation: Compound NOT metabolized
[12]
  Bacterial Biotransformation: Compound NOT metabolized
[13]
  Bacterial Biotransformation: Compound NOT metabolized
[14]
  Bacterial Biotransformation: Compound NOT metabolized
[15]
  Bacterial Biotransformation: Compound NOT metabolized
[16]
  Bacterial Biotransformation: Compound NOT metabolized
[17]
  Bacterial Biotransformation: Compound NOT metabolized
[18]
  Bacterial Biotransformation: Compound NOT metabolized
[19]
  Bacterial Biotransformation: Compound NOT metabolized

## C[C@@H]1CC[C@H]2[C@@H](C)C(=O)O[C@@H]3O[C@@]4(C)CC[C@@H]1[C@]32OO4 [ARTEMISININ]
[20]
  Bacterial Biotransformation: Compound metabolized
[1]
  Bacterial Biotransformation: Compound metabolized
[2]
  Bacterial Biotransformation: Compound metabolized
[3]
  Bacterial Biotransformation: Compound metabolized
[5]
  Bacterial Biotransformation: Compound metabolized
[6]
  Bacterial Biotransformation: Compound metabolized
[7]
  Bacterial Biotransformation: Compound metabolized
[8]
  Bacterial Biotransformation: Compound metabolized
[9]
  Bacterial Biotransformation: Compound metabolized
[10]
  Bacterial Biotransformation: Compound metabolized
[11]
  Bacterial Biotransformation: Compound metabolized
[12]
  Bacterial Biotransformation: Compound metabolized
[13]
  Bacterial Biotransformation: Compound metabolized
[16]
  Bacterial Biotransformation: Compound metabolized
[17]
  Bacterial Biotransformation: Compound metabolized
[18]
  Bacterial Biotransformation: Compound metabolized
[19]
  Bacterial Biotransformation: Compound metabolized

## CC(C)OC(=O)C(C)(C)Oc1ccc(C(=O)c2ccc(Cl)cc2)cc1 [FENOFIBRATE]
[20]
  Bacterial Biotransformation: Compound metabolized
[1]
  Bacterial Biotransformation: Compound NOT metabolized
[2]
  Bacterial Biotransformation: Compound metabolized
[3]
  Bacterial Biotransformation: Compound metabolized
[4]
  Bacterial Biotransformation: Compound metabolized
[5]
  Bacterial Biotransformation: Compound metabolized
[6]
  Bacterial Biotransformation: Compound metabolized
[7]
  Bacterial Biotransformation: Compound NOT metabolized
[8]
  Bacterial Biotransformation: Compound NOT metabolized
[9]
  Bacterial Biotransformation: Compound NOT metabolized
[10]
  Bacterial Biotransformation: Compound NOT metabolized
[12]
  Bacterial Biotransformation: Compound NOT metabolized
[13]
  Bacterial Biotransformation: Compound NOT metabolized
[14]
  Bacterial Biotransformation: Compound metabolized
[15]
  Bacterial Biotransformation: Compound metabolized
[16]
  Bacterial Biotransformation: Compound NOT metabolized
[17]
  Bacterial Biotransformation: Compound metabolized
[18]
  Bacterial Biotransformation: Compound metabolized
[19]
  Bacterial Biotransformation: Compound metabolized

## COc1c2occc2cc2ccc(=O)oc12 [METHOXSALEN]
[20]
  Bacterial Biotransformation: Compound metabolized
[1]
  Bacterial Biotransformation: Compound NOT metabolized
[2]
  Bacterial Biotransformation: Compound metabolized
[3]
  Bacterial Biotransformation: Compound metabolized
[4]
  Bacterial Biotransformation: Compound metabolized
[5]
  Bacterial Biotransformation: Compound metabolized
[6]
  Bacterial Biotransformation: Compound metabolized
[8]
  Bacterial Biotransformation: Compound metabolized
[9]
  Bacterial Biotransformation: Compound metabolized
[10]
  Bacterial Biotransformation: Compound metabolized
[12]
  Bacterial Biotransformation: Compound metabolized
[13]
  Bacterial Biotransformation: Compound metabolized
[14]
  Bacterial Biotransformation: Compound metabolized
[15]
  Bacterial Biotransformation: Compound metabolized
[16]
  Bacterial Biotransformation: Compound metabolized
[17]
  Bacterial Biotransformation: Compound metabolized
[18]
  Bacterial Biotransformation: Compound metabolized
[19]
  Bacterial Biotransformation: Compound NOT metabolized

## COc1ccccc1N1CCN(CC(O)COc2cccc3ccccc23)CC1 (stereo not given) [NAFTOPIDIL]
[1]
  Bacterial Biotransformation: Compound NOT metabolized
[2]
  Bacterial Biotransformation: Compound NOT metabolized
[3]
  Bacterial Biotransformation: Compound NOT metabolized
[4]
  Bacterial Biotransformation: Compound NOT metabolized
[5]
  Bacterial Biotransformation: Compound NOT metabolized
[6]
  Bacterial Biotransformation: Compound NOT metabolized
[7]
  Bacterial Biotransformation: Compound NOT metabolized
[8]
  Bacterial Biotransformation: Compound NOT metabolized
[9]
  Bacterial Biotransformation: Compound NOT metabolized
[10]
  Bacterial Biotransformation: Compound NOT metabolized
[11]
  Bacterial Biotransformation: Compound NOT metabolized
[12]
  Bacterial Biotransformation: Compound NOT metabolized
[13]
  Bacterial Biotransformation: Compound NOT metabolized
[14]
  Bacterial Biotransformation: Compound NOT metabolized
[15]
  Bacterial Biotransformation: Compound NOT metabolized
[16]
  Bacterial Biotransformation: Compound NOT metabolized
[17]
  Bacterial Biotransformation: Compound NOT metabolized
[18]
  Bacterial Biotransformation: Compound NOT metabolized
[19]
  Bacterial Biotransformation: Compound NOT metabolized

## CNC(=C[N+](=O)[O-])NCCSCc1csc(CN(C)C)n1 [NIZATIDINE]
[20]
  Bacterial Biotransformation: Compound NOT metabolized
[2]
  Bacterial Biotransformation: Compound NOT metabolized
[3]
  Bacterial Biotransformation: Compound NOT metabolized
[4]
  Bacterial Biotransformation: Compound NOT metabolized
[5]
  Bacterial Biotransformation: Compound metabolized
[6]
  Bacterial Biotransformation: Compound NOT metabolized
[7]
  Bacterial Biotransformation: Compound NOT metabolized
[8]
  Bacterial Biotransformation: Compound NOT metabolized
[9]
  Bacterial Biotransformation: Compound NOT metabolized
[10]
  Bacterial Biotransformation: Compound NOT metabolized
[11]
  Bacterial Biotransformation: Compound NOT metabolized
[12]
  Bacterial Biotransformation: Compound metabolized
[13]
  Bacterial Biotransformation: Compound NOT metabolized
[14]
  Bacterial Biotransformation: Compound NOT metabolized
[15]
  Bacterial Biotransformation: Compound metabolized
[16]
  Bacterial Biotransformation: Compound metabolized
[17]
  Bacterial Biotransformation: Compound metabolized
[18]
  Bacterial Biotransformation: Compound metabolized
[19]
  Bacterial Biotransformation: Compound metabolized

## Cc1nc2n(c(=O)c1CCN1CCC(c3noc4cc(F)ccc34)CC1)CCCC2 [RISPERIDONE]
[20]
  Bacterial Biotransformation: Compound metabolized
[1]
  Bacterial Biotransformation: Compound NOT metabolized
[2]
  Bacterial Biotransformation: Compound metabolized
[3]
  Bacterial Biotransformation: Compound metabolized
[4]
  Bacterial Biotransformation: Compound metabolized
[5]
  Bacterial Biotransformation: Compound metabolized
[6]
  Bacterial Biotransformation: Compound metabolized
[7]
  Bacterial Biotransformation: Compound metabolized
[8]
  Bacterial Biotransformation: Compound metabolized
[9]
  Bacterial Biotransformation: Compound metabolized
[10]
  Bacterial Biotransformation: Compound metabolized
[11]
  Bacterial Biotransformation: Compound metabolized
[12]
  Bacterial Biotransformation: Compound metabolized
[13]
  Bacterial Biotransformation: Compound metabolized
[14]
  Bacterial Biotransformation: Compound metabolized
[15]
  Bacterial Biotransformation: Compound metabolized
[17]
  Bacterial Biotransformation: Compound metabolized
[18]
  Bacterial Biotransformation: Compound metabolized
[19]
  Bacterial Biotransformation: Compound NOT metabolized

## CN(C)CCc1c[nH]c2ccc(Cn3cncn3)cc12.O=C(O)c1ccccc1 [RIZATRIPTAN BENZOATE]
[20]
  Bacterial Biotransformation: Compound NOT metabolized
[1]
  Bacterial Biotransformation: Compound NOT metabolized
[2]
  Bacterial Biotransformation: Compound NOT metabolized
[3]
  Bacterial Biotransformation: Compound NOT metabolized
[4]
  Bacterial Biotransformation: Compound NOT metabolized
[5]
  Bacterial Biotransformation: Compound NOT metabolized
[6]
  Bacterial Biotransformation: Compound NOT metabolized
[8]
  Bacterial Biotransformation: Compound NOT metabolized
[9]
  Bacterial Biotransformation: Compound NOT metabolized
[10]
  Bacterial Biotransformation: Compound NOT metabolized
[11]
  Bacterial Biotransformation: Compound NOT metabolized
[12]
  Bacterial Biotransformation: Compound NOT metabolized
[13]
  Bacterial Biotransformation: Compound NOT metabolized
[14]
  Bacterial Biotransformation: Compound NOT metabolized
[15]
  Bacterial Biotransformation: Compound NOT metabolized
[16]
  Bacterial Biotransformation: Compound NOT metabolized
[17]
  Bacterial Biotransformation: Compound NOT metabolized

## Cc1cn([C@H]2C[C@H](N=[N+]=[N-])[C@@H](CO)O2)c(=O)[nH]c1=O [ZIDOVUDINE]
[20]
  Bacterial Biotransformation: Compound metabolized
[1]
  Bacterial Biotransformation: Compound metabolized
[2]
  Bacterial Biotransformation: Compound NOT metabolized
[3]
  Bacterial Biotransformation: Compound NOT metabolized
[4]
  Bacterial Biotransformation: Compound metabolized
[5]
  Bacterial Biotransformation: Compound NOT metabolized
[6]
  Bacterial Biotransformation: Compound NOT metabolized
[7]
  Bacterial Biotransformation: Compound NOT metabolized
[9]
  Bacterial Biotransformation: Compound NOT metabolized
[11]
  Bacterial Biotransformation: Compound NOT metabolized
[12]
  Bacterial Biotransformation: Compound NOT metabolized
[13]
  Bacterial Biotransformation: Compound NOT metabolized
[14]
  Bacterial Biotransformation: Compound NOT metabolized
[15]
  Bacterial Biotransformation: Compound NOT metabolized
[16]
  Bacterial Biotransformation: Compound NOT metabolized
[17]
  Bacterial Biotransformation: Compound NOT metabolized
[18]
  Bacterial Biotransformation: Compound NOT metabolized
[19]
  Bacterial Biotransformation: Compound NOT metabolized
